{"source": "patent US7223835B2", "about": "“VEGF peptides and their use for inhibiting angiogenesis” (Ark Therapeutics Ltd., priority 2000, dated 2007)", "test_system": "human endothelial cell-derived tubule formation", "test": "In vitro angiogenesis assay, endothelial cell-derived tubule formation in co-culture with human fibroblasts", "assay_type": "cell-based", "conditions": "tubule formation at day 11, CD31 immunostaining, with and without VEGF; FIG. 4", "protocol": "An in vitro angiogenesis assay based on human endothelial cell-derived tubule formation (TCS Biologicals) in a co-culture with human fibroblasts was used to investigate the effects of selected peptides on angiogenesis. The peptides, together with VEGF and other factors were added at the start of the experiment and at each medium change at days 4, 7 and 9. At day 11, the cultures were fixed with 70% ethanol for 30 min at room temperature and subsequently subjected to immunostaining for the endothelial cell adhesion molecule CD31. Fixed cells were incubated with the primary antibody (mouse anti-human CD31) for 1 h at 37° C., washed 3 times in blocking buffer (PBS containing 1% BSA), and then incubated with the secondary antibody (goat anti-mouse IgG conjugated to alkaline phosphatase) for 1 h at 37° C. After 3 washes in distilled water, the cells were finally incubated with the substrate solution for 10 min at 37° C. Immunostaining was observed and photographed using an inverted Zeiss microscope (Axiovert CFL25) fitted with a ×4 objective lens. […] A, VEGF released from untreated control during 11 days, measured by specific immunoassay; B, untreated control; C, VEGF; D, peptide 121–132; E, VEGF in the presence of peptide 121–132; F, peptide 125–136; and G, VEGF in the presence of peptide 125–136.", "data": [{"substance": "RKRKKSR [SEQ ID NO:21, 7-mer truncated derivative of the 12-mer V125–136 protein]", "values": [{"measurement": "inhibition of angiogenesis (Chalkley count), potency compared with the 12-mer", "result": "inhibits angiogenesis with similar potency to the 12-mer"}]}]}
